Experimental data: PubChem BioAssay AID2060902 (Molecular Pharmacology Branch, DTP, NCI, 2025)

Test system: 485368-065-R3-J5-PDC spheroids with HUVEC/MSC, viability
Assay: Anticancer human tumor 485368-065-R3-J5-PDC patient-derived pancreatic carcinoma cell line growth inhibition [RAS]
Conditions: for viability, T/C: stronger effect = lower value
Procedure, shortened: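 Tumour cells grown as complex spheroids with HUVEC endothelial cells and mesenchymal stem cells, treated with RAS pathway inhibitor combinations. Each agent spans half-log steps from near clinical Cmax, or 10 microM where Cmax is unknown.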
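Further: spheroids exposed to agents for seven days before readout.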

CC1(O)CCCC1n1c(=O)c(C(F)F)cc2cnc(NC3CCN(S(C)(=O)=O)CC3)nc21 (centres undefined) + C#Cc1c(F)ccc2cc(O)cc(-c3ncc4c(N5CC6CCC(C5)N6)nc(OCC56CCCN5CC(F)C6)nc4c3F)c12
IC50 (curve of first compound, second compound 0.0316 µM): 562 nM | IC50 (curve of first compound, second compound 0.1 µM): 314 nM | IC50 (curve of first compound, second compound 0.316 µM): 504 nM | IC50 (curve of first compound, second compound 1 µM): 344 nM | IC50 (curve of first compound, second compound 3.16 µM): 131 nM | IC50 (curve of first compound, second compound 10 µM): < 31.6 nM | viability, T/C (second compound 0.0316 µM, first compound 0.0316 µM): 94.1% | viability, T/C (second compound 0.0316 µM, first compound 0.1 µM): 62.8% | viability, T/C (second compound 0.0316 µM, first compound 0.316 µM): 53.2% | viability, T/C (second compound 0.0316 µM, first compound 1 µM): 46.5% | viability, T/C (second compound 0.0316 µM, first compound 3.16 µM): 39.4% | viability, T/C (second compound 0.0316 µM, first compound 10 µM): 11.2% | viability, T/C (second compound 0.1 µM, first compound 0.0316 µM): 103% | viability, T/C (second compound 0.1 µM, first compound 0.1 µM): 66.4% | viability, T/C (second compound 0.1 µM, first compound 0.316 µM): 44.9% | viability, T/C (second compound 0.1 µM, first compound 1 µM): 40.8% | viability, T/C (second compound 0.1 µM, first compound 3.16 µM): 39.9% | viability, T/C (second compound 0.1 µM, first compound 10 µM): 10.9% | viability, T/C (second compound 0.316 µM, first compound 0.0316 µM): 84.6% | viability, T/C (second compound 0.316 µM, first compound 0.1 µM): 71.1% | viability, T/C (second compound 0.316 µM, first compound 0.316 µM): 46% | viability, T/C (second compound 0.316 µM, first compound 1 µM): 39% | viability, T/C (second compound 0.316 µM, first compound 3.16 µM): 47.1% | viability, T/C (second compound 0.316 µM, first compound 10 µM): 11.9% | viability, T/C (second compound 1 µM, first compound 0.0316 µM): 90% | viability, T/C (second compound 1 µM, first compound 0.1 µM): 63.4% | viability, T/C (second compound 1 µM, first compound 0.316 µM): 41% | viability, T/C (second compound 1 µM, first compound 1 µM): 44.2% | viability, T/C (second compound 1 µM, first compound 3.16 µM): 40.4% | viability, T/C (second compound 1 µM, first compound 10 µM): 13.3% | viability, T/C (second compound 3.16 µM, first compound 0.0316 µM): 65.8% | viability, T/C (second compound 3.16 µM, first compound 0.1 µM): 46.8% | viability, T/C (second compound 3.16 µM, first compound 0.316 µM): 38.8% | viability, T/C (second compound 3.16 µM, first compound 1 µM): 34.4% | viability, T/C (second compound 3.16 µM, first compound 3.16 µM): 35.8% | viability, T/C (second compound 3.16 µM, first compound 10 µM): 9.18% | viability, T/C (second compound 10 µM, first compound 0.0316 µM): 36.9% | viability, T/C (second compound 10 µM, first compound 0.1 µM): 32.6% | viability, T/C (second compound 10 µM, first compound 0.316 µM): 28.6% | viability, T/C (second compound 10 µM, first compound 1 µM): 30.9% | viability, T/C (second compound 10 µM, first compound 3.16 µM): 31.9% | viability, T/C (second compound 10 µM, first compound 10 µM): 6.8%

Cc1nc(N2CCC3(CC2)COC(C)C3N)c(CO)nc1Sc1ccnc(N)c1Cl (centres undefined)
viability, T/C (compound 0.0316 µM): 102% [middle of 4 runs] | viability, T/C (compound 0.1 µM): 93.5% [middle of 4 runs] | viability, T/C (compound 0.316 µM): 88.9% [middle of 4 runs] | viability, T/C (compound 1 µM): 72.8% [middle of 4 runs] | IC50 (curve of compound): > 10000 nM

CCc1c2c(nc3ccc(O)cc13)-c1cc3c(c(=O)n1C2)COC(=O)[C@]3(O)CC + CCn1c(-c2cc(N3CCN(C)CC3)cnc2C(C)OC)c2c3cc(ccc31)-c1csc(n1)CC(NC(=O)C1CC1C)C(=O)N1CCCC(N1)C(=O)OCC(C)(C)C2
IC50 (curve of first compound, second compound 0.000949 µM): < 0.949 nM | IC50 (curve of first compound, second compound 0.003 µM): < 0.949 nM | IC50 (curve of first compound, second compound 0.00949 µM): < 0.949 nM | IC50 (curve of first compound, second compound 0.03 µM): < 0.949 nM | IC50 (curve of first compound, second compound 0.0949 µM): < 0.949 nM | IC50 (curve of first compound, second compound 0.3 µM): < 0.949 nM | viability, T/C (second compound 0.000949 µM, first compound 0.000949 µM): 29.2% | viability, T/C (second compound 0.000949 µM, first compound 0.003 µM): 19.3% | viability, T/C (second compound 0.000949 µM, first compound 0.00949 µM): 12.3% | viability, T/C (second compound 0.000949 µM, first compound 0.03 µM): 6.49% | viability, T/C (second compound 0.000949 µM, first compound 0.0949 µM): 3.81% | viability, T/C (second compound 0.000949 µM, first compound 0.3 µM): 3.85% | viability, T/C (second compound 0.003 µM, first compound 0.000949 µM): 17.6% | viability, T/C (second compound 0.003 µM, first compound 0.003 µM): 13.6% | viability, T/C (second compound 0.003 µM, first compound 0.00949 µM): 9.1% | viability, T/C (second compound 0.003 µM, first compound 0.03 µM): 7.85% | viability, T/C (second compound 0.003 µM, first compound 0.0949 µM): 5.44% | viability, T/C (second compound 0.003 µM, first compound 0.3 µM): 3.67% | viability, T/C (second compound 0.00949 µM, first compound 0.000949 µM): 15.4% | viability, T/C (second compound 0.00949 µM, first compound 0.003 µM): 11.8% | viability, T/C (second compound 0.00949 µM, first compound 0.00949 µM): 8.19% | viability, T/C (second compound 0.00949 µM, first compound 0.03 µM): 7.82% | viability, T/C (second compound 0.00949 µM, first compound 0.0949 µM): 5.53% | viability, T/C (second compound 0.00949 µM, first compound 0.3 µM): 6.59% | viability, T/C (second compound 0.03 µM, first compound 0.000949 µM): 9.82% | viability, T/C (second compound 0.03 µM, first compound 0.003 µM): 8.14% | viability, T/C (second compound 0.03 µM, first compound 0.00949 µM): 6.87% | viability, T/C (second compound 0.03 µM, first compound 0.03 µM): 8.66% | viability, T/C (second compound 0.03 µM, first compound 0.0949 µM): 5.8% | viability, T/C (second compound 0.03 µM, first compound 0.3 µM): 7.18% | viability, T/C (second compound 0.0949 µM, first compound 0.000949 µM): 8.87% | viability, T/C (second compound 0.0949 µM, first compound 0.003 µM): 8.54% | viability, T/C (second compound 0.0949 µM, first compound 0.00949 µM): 6.42% | viability, T/C (second compound 0.0949 µM, first compound 0.03 µM): 6.3% | viability, T/C (second compound 0.0949 µM, first compound 0.0949 µM): 6.27% | viability, T/C (second compound 0.0949 µM, first compound 0.3 µM): 5.48% | viability, T/C (second compound 0.3 µM, first compound 0.000949 µM): 7.33% | viability, T/C (second compound 0.3 µM, first compound 0.003 µM): 9.17% | viability, T/C (second compound 0.3 µM, first compound 0.00949 µM): 6.28% | viability, T/C (second compound 0.3 µM, first compound 0.03 µM): 5.07% | viability, T/C (second compound 0.3 µM, first compound 0.0949 µM): 5.93% | viability, T/C (second compound 0.3 µM, first compound 0.3 µM): 5.26%
